Assays:
CDK9/cyclinT1 complex = CDK9/cyclinT1 complex (Homo sapiens, UniProt P50750); experiment: In-vitro enzymatic inhibitory activity testing, CDK9 inhibition assay (Caliper EZ Reader II); assay type: biochemical; conditions: CDK9/cyclinT1 8 nM, 180 min at 27° C.
Description: (§1) CDK12/CyclinK was diluted in an assay buffer (80 mM MES PH 6.5, 0.01% Tween 20, 50 ug/mL BSA, 10 mM MgCl2) to afford a corresponding enzyme solution with the 2.4 concentration. A compound was dissolved in dimethyl sulfoxide (DMSO) at a concentration of 10 mM. […] 2 ul of a test compound solution was mixed with 5 ul of the enzyme solution; after incubation for 10 min, 5 ul of the polypeptide substrate and ATP mixed solution was added; incubation was carried out for 180 min at 27° C.; and then, the reaction was terminated by adding 4 uL of EDTA with a concentration of 120 mM to each sample. […] A CDK9/cyclinT1 complex (8 nM) and a “5-FAM-CDK9tide” peptide substrate (2 IM, synthetic fluorophore-labeled peptide with the following sequence: 5-FAM-GSRTPMY-NH2, wherein 5-FAM was as defined above and NH2 represented C-terminal amide) were used for a CDK9 inhibition assay. […] A CDK2/cyclinE1 complex (0.5 nM) and “5-FAM-CDK7tide” (2 μM) as defined above were used for CDK2 inhibition assay.
(§2) A reaction mixture was analyzed on Caliper EZ Reader II by electrophoretic separation of a fluorogenic substrate and a phosphorylated product. Data were calculated by using GraphPad Prism version 6.0, and IC50 values were adjusted and obtained by using a nonlinear regression model of a dose response curve.

CDK2/cyclinE1 complex = CDK2/cyclinE1 complex (Homo sapiens, UniProt P24941); experiment: In-vitro enzymatic inhibitory activity testing, CDK2 inhibition assay (Caliper EZ Reader II); assay type: biochemical; conditions: CDK2/cyclinE1 0.5 nM, 180 min at 27° C.
Description: CDK12/CyclinK was diluted in an assay buffer (80 mM MES PH 6.5, 0.01% Tween 20, 50 ug/mL BSA, 10 mM MgCl2) to afford a corresponding enzyme solution with the 2.4 concentration. […] A CDK9/cyclinT1 complex (8 nM) and a “5-FAM-CDK9tide” peptide substrate (2 IM, synthetic fluorophore-labeled peptide with the following sequence: 5-FAM-GSRTPMY-NH2, wherein 5-FAM was as defined above and NH2 represented C-terminal amide) were used for a CDK9 inhibition assay. […] A CDK2/cyclinE1 complex (0.5 nM) and “5-FAM-CDK7tide” (2 μM) as defined above were used for CDK2 inhibition assay.
as §2

ovarian cancer A2780 = experiment: Cell biological activity detection (CyQuant, 72 hours), A2780; assay type: cell-based, human; conditions: A2780 cells, incubation for 72 hours
Description: (§3) A2780 and HCC70 cells were subjected to trypsin digestion treatment, and cell suspensions were respectively transferred to 15 mL centrifuge tubes and centrifuged for 5 min at […]) rpm; supernatant was discarded, and resuspension was carried out in a fresh medium (RPMI 1640+10% FBS), after counting, cells were seeded into a 384-well plate at 2000/well (50 μL of 1640+10% FBS medium was added to the 2nd column and the 23rd column of the 384-well plate, and 50 μL of DPBS was added to the surrounding wells). Incubation was carried out overnight in an incubator (37° C., 5% CO2).
(§4) The compound was added to the well plates the next day. The compound had the highest concentration of 10 μM and was diluted at 1:4, and there were a total of 9 concentrations; and a positive compound Paclitaxel had the highest concentration of 1 μM and was diluted at 1:3, and there were a total of 9 concentrations. The DMSO content in each well was unified to 0.2%. The cell plates were centrifuged for 30 seconds at 800 rpm and placed in an incubator (37° C., 5% CO2) for incubation for 72 hours. On the fourth day, a Cyquant reagent (3×) was formulated according to kit instructions, and formulation was carried out for each 384-well plate according to the following proportions: DPBS 11.568 mL, CyQuant®? Direct nucleic acid stain 72 μL, and CyQuant® Direct background suppressor 360 μL. After uniform mixing, the reagent was placed at room temperature for further use. The cell plates were taken out and equilibrated for 30 min at room temperature, and 25 μL of the Cyquant reagent (3×) per well was dispensed into the cells of the 384-well plates by Multi-drop, and incubation was carried out for more than 60 minutes at 37° C. Acumen plate reading (Acumen setting: an excitation wavelength of 488 nm). IC50 results were analyzed by XLFIT5 from IDBS Company.

[1] = target: T1, CDK12 (aa686-1082)/cyclinK complex (Homo sapiens, UniProt Q9NYV4); experiment: In-vitro enzymatic inhibitory activity testing, CDK12 inhibition assay (Caliper EZ Reader II); assay type: biochemical; conditions: CDK12/cyclinK 50 nM, 180 min at 27° C.; read-out: CDK12 IC50
T1 construct: A CDK12 (aa686-1082)/cyclinK complex (50 nM)
Description: An assay was carried out in a U-bottom 384-well plate (coming, 4512#), and the reaction temperature was 27° C. CDK7/CyclinH was diluted in an assay buffer (20 mM MES PH 6.75, 0.01% Tween 20, 50 ug/mL BSA, 6 mM MgCl2) to afford a corresponding enzyme solution with the 2.4× concentration. CDK2/CyclinE1 was diluted in an assay buffer (20 mM MES PH 6.75, 0.01% Tween 20, 50 ug/mL BSA, 6 mM MgCl2) to afford a corresponding enzyme solution with the 2.4× concentration. CDK9/CyclinT1 was diluted in an assay buffer (20 mM MES PH 6.75, 0.01% Tween 20, 50 ug/mL BSA, 10 mM MgCl2) to afford a corresponding enzyme solution with the 2.4× concentration. CDK12/CyclinK was diluted in an assay buffer (80 mM MES PH 6.5, 0.01% Tween 20, 50 ug/mL BSA, 10 mM MgCl2) to afford a corresponding enzyme solution with the 2.4 concentration. A compound was dissolved in dimethyl sulfoxide (DMSO) at a concentration of 10 mM. During use, the compound was diluted with DMSO into 10 concentration gradients from 25 nM to 500 uM, and respectively diluted by 8.3 folds in the assay buffer to afford a compound solution with a 6× concentration. A polypeptide substrate and ATP were diluted in the assay buffer to afford a polypeptide substrate and ATP mixed solution with a 2.4× concentration. 2 ul of a test compound solution was mixed with 5 ul of the enzyme solution; after incubation for 10 min, 5 ul of the polypeptide substrate and ATP mixed solution was added; incubation was carried out for 180 min at 27° C.; and then, the reaction was terminated by adding 4 uL of EDTA with a concentration of 120 mM to each sample. […]. Specifically, a CDK7/cyclinH/MAT1 complex (6 nM) and a “5-FAMCD K 7 tide” peptide substrate (2 μM, synthetic fluorophore-labeled peptide with the following sequence: 5-FAM-[…], wherein “5-FAM” refers to 5-carboxyfluorescein) were used for a CDK7 inhibition assay. A CDK9/cyclinT1 complex (8 nM) and a “5-FAM-CDK9tide” peptide substrate (2 IM, synthetic fluorophore-labeled peptide with the following sequence: 5-FAM-GSRTPMY-NH2, wherein 5-FAM was as defined above and NH2 represented C-terminal amide) were used for a CDK9 inhibition assay. A CDK12 (aa686-1082)/cyclinK complex (50 nM) and “5-FAM-CDK9tide” (2 μM) as defined above were used for a CDK12 inhibition assay. A CDK2/cyclinE1 complex (0.5 nM) and “5-FAM-CDK7tide” (2 μM) as defined above were used for CDK2 inhibition assay.
as §2

[2] = target: CDK7/cyclinH/MAT1 complex (Homo sapiens, UniProt P50613); experiment: In-vitro enzymatic inhibitory activity testing, CDK7 inhibition assay (Caliper EZ Reader II); assay type: biochemical; conditions: CDK7/cyclinH/MAT1 6 nM, 180 min at 27° C.
Description: as §1, §2

[3] = test system: human breast cancer cells HCC70; experiment: Cell biological activity detection (CyQuant, 72 hours), HCC70; assay type: cell-based; conditions: incubation for 72 hours
Description: as §3, §4

T1 sequence (Q9NYV4 686-1082, species assumed): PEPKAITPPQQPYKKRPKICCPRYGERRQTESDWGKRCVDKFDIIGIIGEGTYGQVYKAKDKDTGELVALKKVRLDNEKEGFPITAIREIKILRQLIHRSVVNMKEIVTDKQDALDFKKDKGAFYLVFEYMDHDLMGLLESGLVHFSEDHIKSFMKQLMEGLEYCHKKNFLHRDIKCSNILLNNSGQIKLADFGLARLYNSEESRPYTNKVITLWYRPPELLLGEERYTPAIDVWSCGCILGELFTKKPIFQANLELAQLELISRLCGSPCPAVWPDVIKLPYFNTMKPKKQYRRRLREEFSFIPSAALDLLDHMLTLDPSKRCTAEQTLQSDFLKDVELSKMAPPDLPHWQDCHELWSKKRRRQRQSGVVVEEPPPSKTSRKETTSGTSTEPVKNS
T1 sequence (O75909 whole entry partner, species assumed, the tested form may be a part): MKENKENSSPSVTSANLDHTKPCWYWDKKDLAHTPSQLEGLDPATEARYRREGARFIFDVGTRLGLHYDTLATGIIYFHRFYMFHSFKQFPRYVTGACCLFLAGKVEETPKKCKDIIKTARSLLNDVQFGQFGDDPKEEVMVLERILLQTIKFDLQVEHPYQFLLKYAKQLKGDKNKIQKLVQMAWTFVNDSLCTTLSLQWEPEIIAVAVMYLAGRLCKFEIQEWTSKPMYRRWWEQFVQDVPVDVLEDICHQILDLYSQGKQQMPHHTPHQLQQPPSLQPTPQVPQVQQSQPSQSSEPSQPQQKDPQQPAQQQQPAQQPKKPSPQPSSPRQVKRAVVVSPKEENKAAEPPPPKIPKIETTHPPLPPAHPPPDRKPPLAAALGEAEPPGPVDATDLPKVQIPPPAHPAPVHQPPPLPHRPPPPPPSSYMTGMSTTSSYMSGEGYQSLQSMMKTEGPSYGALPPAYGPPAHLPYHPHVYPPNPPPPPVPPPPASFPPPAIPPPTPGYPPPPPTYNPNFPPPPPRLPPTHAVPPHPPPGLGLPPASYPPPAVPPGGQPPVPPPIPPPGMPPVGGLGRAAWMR
CDK7/cyclinH/MAT1 complex, sequence (P50613 whole entry, species assumed): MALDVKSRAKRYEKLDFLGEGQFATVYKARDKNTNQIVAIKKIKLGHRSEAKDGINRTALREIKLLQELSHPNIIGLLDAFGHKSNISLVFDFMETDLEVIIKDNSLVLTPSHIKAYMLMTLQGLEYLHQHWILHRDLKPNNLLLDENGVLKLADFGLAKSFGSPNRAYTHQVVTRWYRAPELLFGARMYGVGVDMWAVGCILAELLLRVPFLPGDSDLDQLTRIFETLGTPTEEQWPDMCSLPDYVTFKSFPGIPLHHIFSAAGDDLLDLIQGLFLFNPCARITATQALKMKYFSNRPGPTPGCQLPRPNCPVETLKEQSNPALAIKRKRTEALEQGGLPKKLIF
CDK7/cyclinH/MAT1 complex, sequence (P51946 whole entry partner, species assumed): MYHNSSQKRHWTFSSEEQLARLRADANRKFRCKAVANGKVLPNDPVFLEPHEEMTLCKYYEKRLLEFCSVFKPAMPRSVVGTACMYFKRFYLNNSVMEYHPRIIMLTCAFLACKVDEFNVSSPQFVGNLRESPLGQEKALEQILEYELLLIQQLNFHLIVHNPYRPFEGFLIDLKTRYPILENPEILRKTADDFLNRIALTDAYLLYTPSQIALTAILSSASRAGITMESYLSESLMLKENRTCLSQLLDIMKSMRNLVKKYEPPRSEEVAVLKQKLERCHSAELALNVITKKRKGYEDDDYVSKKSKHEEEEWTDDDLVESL
CDK7/cyclinH/MAT1 complex, sequence (P51948 whole entry partner, species assumed): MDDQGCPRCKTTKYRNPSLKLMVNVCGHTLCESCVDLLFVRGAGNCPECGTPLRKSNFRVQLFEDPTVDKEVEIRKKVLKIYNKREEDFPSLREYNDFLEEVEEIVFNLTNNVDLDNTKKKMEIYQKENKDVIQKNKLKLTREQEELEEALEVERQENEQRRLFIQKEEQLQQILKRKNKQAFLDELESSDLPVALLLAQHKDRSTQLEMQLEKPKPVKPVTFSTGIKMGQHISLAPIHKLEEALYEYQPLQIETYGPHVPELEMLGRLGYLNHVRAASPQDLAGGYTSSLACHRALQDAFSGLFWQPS
CDK9/cyclinT1 complex, sequence (P50750 whole entry, species assumed): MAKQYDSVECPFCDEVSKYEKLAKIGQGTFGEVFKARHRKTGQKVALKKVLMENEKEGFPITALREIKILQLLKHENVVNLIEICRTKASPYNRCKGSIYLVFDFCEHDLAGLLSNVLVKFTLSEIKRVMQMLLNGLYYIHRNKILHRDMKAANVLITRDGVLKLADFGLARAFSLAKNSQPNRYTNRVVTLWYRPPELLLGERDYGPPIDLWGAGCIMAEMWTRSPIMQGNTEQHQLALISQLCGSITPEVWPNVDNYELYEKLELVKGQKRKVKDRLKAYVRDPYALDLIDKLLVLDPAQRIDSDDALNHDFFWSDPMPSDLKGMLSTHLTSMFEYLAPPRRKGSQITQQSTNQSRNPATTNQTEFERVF
CDK9/cyclinT1 complex, sequence (O60563 whole entry partner, species assumed): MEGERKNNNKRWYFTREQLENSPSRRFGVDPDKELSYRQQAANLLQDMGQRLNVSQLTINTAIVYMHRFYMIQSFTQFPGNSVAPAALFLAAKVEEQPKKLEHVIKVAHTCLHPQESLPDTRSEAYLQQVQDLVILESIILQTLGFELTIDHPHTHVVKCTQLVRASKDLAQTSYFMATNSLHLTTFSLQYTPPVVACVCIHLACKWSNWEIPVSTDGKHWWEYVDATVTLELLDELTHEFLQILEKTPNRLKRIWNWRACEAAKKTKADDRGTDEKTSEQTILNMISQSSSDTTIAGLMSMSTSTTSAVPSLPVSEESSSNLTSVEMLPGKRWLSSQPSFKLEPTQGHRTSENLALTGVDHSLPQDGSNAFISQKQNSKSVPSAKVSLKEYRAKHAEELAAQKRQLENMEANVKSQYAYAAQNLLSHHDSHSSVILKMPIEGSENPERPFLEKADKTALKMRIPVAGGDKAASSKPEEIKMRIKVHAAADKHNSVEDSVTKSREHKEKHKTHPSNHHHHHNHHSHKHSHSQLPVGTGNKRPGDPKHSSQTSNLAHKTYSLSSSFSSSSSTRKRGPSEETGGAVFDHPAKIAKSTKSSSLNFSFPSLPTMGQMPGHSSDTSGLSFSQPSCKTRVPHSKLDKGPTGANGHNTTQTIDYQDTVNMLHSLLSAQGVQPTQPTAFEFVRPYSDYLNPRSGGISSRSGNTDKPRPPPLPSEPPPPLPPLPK

Row | SMILES | IC50 (CDK9/cyclinT1 complex) [µM] | IC50 (CDK2/cyclinE1 complex) [µM] | IC50 (ovarian cancer A2780; Homo sapiens, A2780, 72 h) [nM] | IC50 [1] [µM] | IC50 [2] [nM] | IC50 ([3]; Homo sapiens, HCC70, 72 h) [nM] | IC50 (ovarian cancer A2780) [nM] | IC50 [3] [nM]
1 | CC(O)[C@H](C)Nc1ncc(C(F)(F)F)c(-c2c[nH]c3c(P(C)(C)=O)cccc23)n1 (mixture of isomers) [Compound 128, (3-(2-(((2S)-3-hydroxybutan-2-yl)amino)-5-(trifluoromethyl)pyrimidin-4-yl)-1H-indole-7-yl)dimethylphosphine oxide] | > 50 | 5 to 50 | < 20 | > 50 | < 20 | 20 to 200 | – | –
2 | FC(F)(F)c1cnc(NC2CCCNCC2)nc1-c1c[nH]c2nc(N3CCOCC3)ccc12 (single isomer, unassigned) [Compound 48] | 5 to 50 | 0.2 to 5 | 200 to 5000 | 0.2 to 5 | 20 to 200 | 200 to 5000 | – | –
3 | FC(F)(F)c1cnc(NC2CCCNCC2)nc1-c1c[nH]c2nc(N3CCOCC3)ccc12 (single isomer, unassigned) [Compound 49] | > 50 | 5 to 50 | – | 5 to 50 | 200 to 5000 | – | 200 to 5000 | 200 to 5000
4 | FC(F)(F)c1cnc(NC2CCC3CNCC32)nc1-c1c[nH]c2nc(N3CCOCC3)ccc12 (single isomer, unassigned) [Compound 57] | > 50 | > 50 | – | > 50 | 200 to 5000 | – | 200 to 5000 | 200 to 5000
5 | CC1(C)COCC(Nc2ncc(C(F)(F)F)c(-c3c[nH]c4nc(C#N)ccc34)n2)CN1 (single isomer, unassigned) [Compound 63] | > 50 | > 50 | 200 to 5000 | 5 to 50 | 20 to 200 | 200 to 5000 | – | –
6 | CC1(C)COC[C@@H](Nc2ncc(C(F)(F)F)c(-c3c[nH]c4nc(C#N)ccc34)n2)CN1 (single isomer, unassigned) [Compound 64] | > 50 | > 50 | 200 to 5000 | 5 to 50 | 20 to 200 | 200 to 5000 | – | –
7 | CC1(C)COCC(Nc2ncc(C(F)(F)F)c(-c3c[nH]c4c(P(C)(C)=O)cccc34)n2)CN1 (single isomer, unassigned) [Compound 92, (3-(2-((3,3-dimethyl-1,4-oxazepan-6-yl)amino)-5-(trifluoromethyl)pyrimidin-4-yl)-1H-indole-7-yl)dimethylphosphine oxide] | 5 to 50 | 5 to 50 | – | 5 to 50 | < 20 | – | < 20 | 20 to 200
